Assays:
[1] = tested on: LS411N; test: 72 hr cell titer Glo proliferation assay, LS411N; type: cell-based; conditions: Homo sapiens, LS-411N, single agent, BRAFV600E
Protocol: (§1) All cell lines express the BRAFV600E protein, except MDST8 which expresses the BRAFV600K variant. Cells harboring known or putative activating mutations in the PI3Kα gene are marked with a (*) and cells with PTEN loss marked with a (#). Cell proliferation was measured in 72 hr cell titer Glo™ assays and all results shown are the result of at least triplicate measurements. […] Interactions were deemed synergistic when scores ≧2.0 where observed.

[2] = tested on: MDST8; test: 72 hr cell titer Glo proliferation assay, MDST8; type: cell-based; conditions: single agent, MDST8, BRAFV600K
Protocol: as §1

[3] = tested on: SNU-C5; test: 72 hr cell titer Glo proliferation assay, SNU-C5; type: cell-based; conditions: single agent, SNU-C5 (PI3Kα mutation), BRAFV600E
Protocol: as §1

[4] = target: CYP3A4 (Homo sapiens, UniProt P08684); test: CYP3A4 interaction; type: in vitro ADME
Chain of CYP3A4 (P08684 whole entry): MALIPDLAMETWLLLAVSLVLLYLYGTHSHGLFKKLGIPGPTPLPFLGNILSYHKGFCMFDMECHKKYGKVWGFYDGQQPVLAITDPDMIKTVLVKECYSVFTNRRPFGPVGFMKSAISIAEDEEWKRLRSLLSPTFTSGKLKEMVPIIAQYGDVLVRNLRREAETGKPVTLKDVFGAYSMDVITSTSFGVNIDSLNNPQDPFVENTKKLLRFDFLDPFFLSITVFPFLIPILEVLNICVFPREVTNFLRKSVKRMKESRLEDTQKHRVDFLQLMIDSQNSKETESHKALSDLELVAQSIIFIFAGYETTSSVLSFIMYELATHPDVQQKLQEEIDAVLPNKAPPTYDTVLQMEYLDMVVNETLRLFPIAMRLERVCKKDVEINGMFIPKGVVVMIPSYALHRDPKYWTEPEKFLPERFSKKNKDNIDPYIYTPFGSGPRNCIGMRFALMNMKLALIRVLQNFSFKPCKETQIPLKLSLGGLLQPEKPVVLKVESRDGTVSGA

[5] = target: T1, BCRP (Homo sapiens, UniProt Q9UNQ0); test: BCRP interaction; type: in vitro ADME
T1 sequence (Q9UNQ0 1-655): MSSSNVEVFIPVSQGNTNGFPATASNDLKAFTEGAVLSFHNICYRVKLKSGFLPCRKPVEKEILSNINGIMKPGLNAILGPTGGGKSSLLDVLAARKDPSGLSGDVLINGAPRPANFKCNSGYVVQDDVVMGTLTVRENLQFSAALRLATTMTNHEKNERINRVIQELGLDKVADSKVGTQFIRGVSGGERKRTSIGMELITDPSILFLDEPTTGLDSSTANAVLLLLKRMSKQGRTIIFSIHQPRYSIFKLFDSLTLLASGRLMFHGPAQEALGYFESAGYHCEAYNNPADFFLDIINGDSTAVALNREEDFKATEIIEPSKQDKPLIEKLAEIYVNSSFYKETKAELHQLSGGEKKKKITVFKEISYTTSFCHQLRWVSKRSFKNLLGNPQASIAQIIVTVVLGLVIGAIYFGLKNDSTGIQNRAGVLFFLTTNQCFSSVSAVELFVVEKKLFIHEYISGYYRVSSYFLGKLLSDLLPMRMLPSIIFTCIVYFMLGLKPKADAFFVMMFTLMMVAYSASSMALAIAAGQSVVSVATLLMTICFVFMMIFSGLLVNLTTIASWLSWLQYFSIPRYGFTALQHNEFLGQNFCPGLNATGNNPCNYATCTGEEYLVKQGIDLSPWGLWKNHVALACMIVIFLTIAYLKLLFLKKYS

[6] = tested on: COLO 205; test: 72 hr cell titer Glo proliferation assay, COLO 205; type: cell-based; conditions: Homo sapiens, single agent, COLO 205, BRAFV600E
Protocol: as §1

[7] = tested on: BRAF-mutant CRC-derived cell lines; test: Proliferation of BRAF-mutant CRC-derived cell lines, panel summary; type: cell-based; conditions: all cell lines tested
Protocol: as §1

[8] = tested on: HT-29; test: 72 hr cell titer Glo proliferation assay, HT-29; type: cell-based; conditions: Homo sapiens, single agent, HT-29 (PI3Kα mutation), BRAFV600E
Protocol: as §1

[9] = tested on: CL-34; test: 72 hr cell titer Glo proliferation assay, CL-34; type: cell-based; conditions: single agent, CL-34, BRAFV600E
Protocol: as §1

[10] = tested on: OUMS-23; test: 72 hr cell titer Glo proliferation assay, OUMS-23; type: cell-based; conditions: single agent, OUMS-23 (PTEN loss), BRAFV600E
Protocol: as §1

[11] = tested on: HT-29 human colorectal adenocarcinoma xenograft; type: in vivo; conditions: for T/C: D29, 100×ΔT/ΔC for ΔT>0; for T/C / Mean Volume Day 1 / Mean Volume Day 29 / Mean Volume Change (ΔT): Cpd A 20 mg/kg po bid x 28, Cpd B 25 mg/kg po qd x 28, cetuximab 20 mg/kg ip biwk x 4, paclitaxel 30 mg/kg iv qod x 5; for Mean Volume Day 1: Day 1, start of dosing; for Mean Volume Change (ΔT): between D1 and D29; for Mean BW Nadir, day of nadir / Deaths NTR / Deaths TR / Regressions CR / Regressions PR: doses as in table; for Deaths NTR / Deaths TR / Regressions CR / Regressions PR: n = 10 per group; for Statistical Significance vs G1: vs Group 1 (vehicles), tumor volume change D1-D29
Protocol: A fresh suspension was prepared every two weeks and stored at room temperature.
A fresh suspension was prepared weekly and stored at 4° C.
Dosing solutions were freshly prepared for one group at a time.
Each agent was administered at a single dose level, individually and in dual and triple combinations, that were initiated on Day 1 (D1) in female nude mice with established subcutaneous tumors. […] Efficacy was determined from mean tumor volume changes between D1 and D29. Prism summarizes test results as not significant (ns) at P>0.05, significant (symbolized by “*”) at 0.01<P≦0.05, very significant (“**”) at 0.001<P≦0.01, and extremely significant (“***”) at P≦0.001.
For the purpose of statistical analyses, ΔTV, the difference in tumor volume between D1 (the start of dosing) and the endpoint day, was determined for every animal. […] The […] values are negative represent net tumor reduction for a group. […] Response to Combination Therapies (Groups 5-8)

[12] = tested on: SW1417; test: 72 hr cell titer Glo proliferation assay, SW1417; type: cell-based; conditions: Homo sapiens, single agent, SW1417, BRAFV600E
Protocol: as §1

[13] = Rat ADME bioavailability; type: in vivo; conditions: pre-clinical
[14] = tested on: RKO; test: 72 hr cell titer Glo proliferation assay, RKO; type: cell-based; conditions: Homo sapiens, single agent, RKO (PI3Kα mutation), BRAFV600E
Protocol: as §1

| SMILES | IC50 [1] [µM] | IC50 [2] [µM] | IC50 [3] [µM] | IC50 [6] [µM] | IC50 [8] [µM] | IC50 [9] [µM] | IC50 [10] [µM] | T/C [11] [%] | Mean Volume Day 1 [11] [mm^3] | Mean Volume Day 29 [11] [mm^3] | Mean Volume Change (ΔT) [11] [mm^3] | Mean BW Nadir, day of nadir [11] | Deaths NTR [11] | Deaths TR [11] | Regressions CR [11] | Regressions PR [11] | Statistical Significance vs G1 [11] | IC50 [12] [µM] | IC50 [14] [µM] | further results |
| --- | --- | --- | --- | --- | --- | --- | --- | --- | --- | --- | --- | --- | --- | --- | --- | --- | --- | --- | --- | --- |
| COC(=O)N[C@@H](C)CNc1nccc(-c2cn(C(C)C)nc2-c2cc(Cl)cc(NS(C)(=O)=O)c2F)n1 [Compound A] | 0.018 | 0.319 | > 2.7 | 0.005 | 0.049 | 0.03 | > 2.7 | 95 | 122 | 1016 | 894 | Day 8 | 0 | 0 | 0 | 0 | ns (not significant (ns) at P>0.05) | – | – | metabolism [4]: mainly metabolized by CYP3A4; BCRP inhibition [5]: inhibitor of BCRP; single agent activity on proliferation [7]: significant single agent activity |
| Cc1nc(NC(=O)N2CCC[C@H]2C(N)=O)sc1-c1ccnc(C(C)(C)C(F)(F)F)c1 [Compound B, (S)-Pyrrolidine-1,2-dicarboxylic acid 2-amide 1-({4-methyl-5-[2-(2,2,2-trifluoro-1,1-dimethyl-ethyl)-pyridin-4-yl]-thiazol-2-yl}-amide)] | > 2.7 | – | > 2.7 | > 2.7 | > 2.7 | > 2.7 | > 2.7 | 57 | 122 | 660 | 538 | Day 8 | 0 | 0 | 0 | 0 | ns (not significant (ns) at P>0.05) | > 2.7 | > 2.7 | CYP3A4 inhibition [4]: time dependent inhibitor of CYP3A4; BCRP substrate [5]: substrate of BCRP; bioavailability [13]: 58% |
| C#Cc1cccc(Nc2ncnc3cc(OCCOC)c(OCCOC)cc23)c1 [Erlotinib, erlotinib, reference compound] | > 2.7 | > 2.7 | > 2.7 | > 2.7 | > 2.7 | > 2.7 | > 2.7 | – | – | – | – | – | – | – | – | – | – | > 2.7 | > 2.7 | – |
| CC(=O)O[C@H]1C(=O)[C@@]2(C)[C@H]([C@H](OC(=O)c3ccccc3)[C@]3(O)C[C@H](OC(=O)[C@H](O)[C@@H](NC(=O)c4ccccc4)c4ccccc4)C(C)=C1C3(C)C)[C@]1(OC(C)=O)CO[C@@H]1C[C@@H]2O [Paclitaxel, paclitaxel, reference compound] | – | – | – | – | – | – | – | 11 | 122 | 229 | 107 | Day 11 | 0 | 0 | 0 | 0 | ** (very significant (“**”) at 0.001<P≦0.01) | – | – | – |

From patent publication US9474754B2, “Pharmaceutical combinations comprising a B-RAF inhibitor, and EGFR inhibitor and optionally a PI3K-α inhibitor” (NOVARTIS AG, priority 2012, dated 2016)
